Measured values reported in ChEMBL document CHEMBL1122719, “Steroids. 2. Synthesis of C-18 functionalized steroids via the Smith-Hughes route” (J Med Chem, 1984).

Target: Estrogen receptor (Rattus norvegicus, UniProt P06211+Q62986)
Assay: Equilibrium dissociation constant for rat uterine estrogen receptor binding [3H]estradiol
Type: protein assay

Row | SMILES | Kd
1 | OC[C@@]12CCC[C@H]1[C@@H]1CCc3cc(O)ccc3[C@H]1CC2 | 0.31 µM
2 | C#C[C@]1(O)CC[C@H]2[C@@H]3CCC4=CC(=O)CC[C@@H]4[C@H]3CC[C@@]21C [NORETHINDRONE] | 0.00063 µM

Target: T1, Progesterone receptor (Gallus gallus) (UniProt P07812)
T1 sequence (whole entry): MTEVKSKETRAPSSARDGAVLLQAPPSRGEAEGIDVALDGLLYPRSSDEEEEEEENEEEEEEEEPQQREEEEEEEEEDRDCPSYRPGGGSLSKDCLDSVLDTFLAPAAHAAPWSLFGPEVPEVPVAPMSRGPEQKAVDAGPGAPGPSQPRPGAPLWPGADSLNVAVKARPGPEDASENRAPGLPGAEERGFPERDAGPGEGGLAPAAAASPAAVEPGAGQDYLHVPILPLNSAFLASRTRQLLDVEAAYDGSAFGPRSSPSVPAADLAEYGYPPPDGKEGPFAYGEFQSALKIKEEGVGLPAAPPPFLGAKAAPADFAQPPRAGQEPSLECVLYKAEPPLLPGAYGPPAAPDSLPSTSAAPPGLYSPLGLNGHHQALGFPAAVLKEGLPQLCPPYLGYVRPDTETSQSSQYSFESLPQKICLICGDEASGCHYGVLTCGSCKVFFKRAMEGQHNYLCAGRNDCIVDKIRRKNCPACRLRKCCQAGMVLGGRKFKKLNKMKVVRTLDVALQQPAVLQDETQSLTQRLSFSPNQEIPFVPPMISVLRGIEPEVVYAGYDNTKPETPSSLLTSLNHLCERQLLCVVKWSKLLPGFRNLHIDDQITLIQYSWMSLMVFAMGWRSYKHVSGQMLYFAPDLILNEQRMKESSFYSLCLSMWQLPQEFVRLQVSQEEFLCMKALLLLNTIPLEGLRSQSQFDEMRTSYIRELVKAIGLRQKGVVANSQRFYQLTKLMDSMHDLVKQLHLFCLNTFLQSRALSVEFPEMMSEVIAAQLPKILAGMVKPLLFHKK
Assay: In vitro displacement of progesterone from oviduct progesterone receptor relative to progesterone

Row | SMILES | Relative binding affinity
3 | C#C[C@@H](O)C12CCCC1C1CCC3=CC(=O)CC[C@@H]3C1CC2 (stereo partly drawn) | 0.6%
4 | CC(=O)C[C@@]12CCC[C@H]1[C@@H]1CCC3=CC(=O)CC[C@@H]3[C@H]1CC2 | 2%
5 | C#C[C@@H](O)C12CCCC1C1CCC3=CC(=O)CC[C@@H]3C1CC2.C#C[C@H](O)C12CCCC1C1CCC3=CC(=O)CC[C@@H]3C1CC2 (stereo partly drawn) | 3.1%
6 | CC(=O)OC(C(C)=O)[C@@]12CCC[C@H]1[C@@H]1CCC3=CC(=O)CC[C@@H]3[C@H]1CC2 (stereo partly drawn) | 0.1%
7 | CC(=O)[C@H]1CC[C@H]2[C@@H]3CCC4=CC(=O)CC[C@]4(C)[C@H]3CC[C@]12C | 100%
8 | C#C[C@]1(O)CC[C@H]2[C@@H]3CCC4=CC(=O)CC[C@@H]4[C@H]3CC[C@@]21C [NORETHINDRONE] | 350%
